These results are taken from patent publication US8404747B2, “Compositions and methods for modulating interaction between polypeptides” (The General Hospital Corporation, priority 2004, dated 2013).

Like-named read-outs stand apart in the source and are kept apart here.

The test system of data set [1] is SP1 trancription factor binding motif (6XSP1) promoter. Description: 6XSP1 luciferase transcription-based assay in 111Q/111Q striatum double knock-in cells. The data set is classed as cell-based, mouse. Conditions: 6XSP1 luciferase reporter; for transcription activation: CG4 among CG series, less potent than C9-4. As to the method:
FIGS. 1A-1C. FIG. 1A is a bar graph showing luciferase expression in Sp1-luc/111Q striatum double knock-in cells following treatment with different compounds, as indicated. Fluorescence was measured 24 hours after addition of compound. FIG. 1B is a bar graph as described in FIG. 1A. Fluorescence was measured 48 hours after addition of compound. FIG. 1C is a bar graph as described in FIG. 1A. Fluorescence was measured 72 hours after addition of compound.
We conducted structure activity relationship (SAR) studies to optimize transcription activation. We developed a novel transcription-based assay for this purpose. A luciferase reporter gene was stably integrated into 111Q/111Q striatum double knock-in cells and constitutively expressed under control of a promoter containing six copies of the SP1 trancription factor binding motif (6XSP1). In this system, C9 was determined to have an EC200 of 7.5 μM.

For data set [2], the system named is aggregation of 103Q in PC12 cells. Description: polyQ (103Q) aggregation in ecdyson-inducible PC12 cells. The data set is classed as cell-based, rat. The note with it: Rattus norvegicus, PC-12. The method, then:
To study the inhibitors we identified using the yeast screen in mammalian cells, we employed ecdyson-inducible rat phaeochromocytoma (PC12) cells. Compounds were tested in two clones, 14A2/5 and 14A2/6, with highest aggregation rate. We incubated undifferentiated PC12 cells with muristerone A to induce 103Q expression, and we exposed the cells to compounds at concentrations ranging from 1 to 10 μM. […] All compounds were non-toxic except C2, which was toxic at concentrations higher than 5 μM.
We tested these analogs at concentrations ranging from 0.025 μM to 5.0 μM for their effects on polyQ aggregation in PC12 cells. Among 24 analogs of C1; 28 analogs of C2; 24 analogs of C3, and 53 analogs of C4, we identified several potent inhibitors of polyQ aggregation. From our C2 focus library, we isolated compound C2-8 (B2 in Table 2), which inhibits polyQ aggregation with an IC50 value 50 nM. We also identified C2-10 (B6 in Table 2) and C2-11 (M16 (formula V(n)) in Table 5), and B7, B8 and B9 in Table 2. From our C3 focus library, we isolated compound C3-5 (M22 (formula V(t)) in Table 5) (having an IC50 value of 100 nM) and compound C3-6 (M17 (formula V(o)) in Table 5) (having an IC50 value of 5 μM). From our C4 library, we isolated compound C4-7 (A31 in Table 1), which has an IC50 value 100 nM. We also identified C4-34 (A3 in Table 1).

The test system of data set [3] is HD Q51 aggregates in Cos1 cells. Description: HD Q51 aggregation in transfected Cos1 cells, cellulose acetate membrane trap. Format: cell-based. Conditions: Chlorocebus aethiops, COS-1; Cos1 cells transfected with HD Q51; read-out: IC50, polyQ aggregation (retained polyQ on membrane). The method, then: The inhibitory activity we observed with C1-C4 in the PC12 cell model described above was confirmed in Cos1 cells transiently transfected with a CMV promoter-based DNA construct that encodes an Htt exon I fragment of Huntington's disease protein (Htt)) having 51 consecutive glutamine residues (HD Q51). When expressed in Cos1 cells, HD 51Q polypeptides readily form aggregates. Transfected Cos1 cells were incubated with C1-C4 compounds in culture medium and lysed. The lysates were then heat-denatured in SDS and passed through a cellulose acetate membrane, which captures aggregated, but not soluble polypeptides. Polyglutamine aggregates trapped on membranes were detected by immunostaining with antibody specific to extended polyQ. Pre-incubation of cells with compounds C1, C3, and C4 decreased the amount of retained polyQ, indicating inhibitory effects on polyQ aggregation. The IC50 for compound C1 was 10 μM and the IC50 for compounds C3 and C4 was 5 μM. As C2 was toxic for Cos1 cells, its effect on aggregation was not determined.

In data set [4] the test system is polyQ aggregates (HD Q150) in neurons of R6/2 mouse brain slices. As to the kind of experiment: polyQ aggregation in R6/2 brain slice cultures. The data set is classed as cell-based. Conditions: 3-week time point. As to the method: The effects of the selected compounds on polyQ aggregation in neuronal tissues were assessed in brain slice cultures from the transgenic mouse R6/2 model of HD. R6/2 mice ubiquitously express human Huntingtin exon I containing 150Q (HD Q150), which causes neuropathology resembling key neurological changes in HD patients. Formation of neuronal polyQ aggregates precedes pathological behavioural changes in R6/2 mice. An organotypic slice culture assay has been developed in order to establish an ex vivo system that closely models the process of aggregation occurring in R6/2 mouse brains. […] The potency of any aggregate inhibitor can be assessed directly in neurons in brain slices (thus bypassing the blood brain barrier, the major obstacle to test compounds in neuronal tissues).
Aggregation in brain slice cultures was assessed during four weeks using three parameters: (1) the number of aggregates per square millimeter, (2) the density of individual aggregates, and (3) the size of the aggregates. These parameters can be assessed in any of the assays described herein. […] To obtain statistically significant data, 20 sections for each sample were quantified with a macro computer program (Paul Wetton at Image Associates, UK), which measured aggregate count, aggregate density and aggregate size. […]

The target in data set [5] is T1, Recombinant HD Q51 polypeptide (Homo sapiens, UniProt P42858, INS38QQQQQQQQQQQQQQQQQQQQQQQQQQQQQQ).
T1 construct: made in house
T1 sequence (P42858 with tags, fused parts or gaps with the stated changes): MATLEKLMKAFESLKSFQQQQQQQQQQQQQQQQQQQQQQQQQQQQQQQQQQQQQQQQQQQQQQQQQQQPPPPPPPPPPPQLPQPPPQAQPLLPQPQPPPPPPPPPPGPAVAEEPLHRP
As to the kind of experiment: cell-free trap assay of purified polyQ. Format: biochemical. Conditions: cell-free trap assay; read-out: IC50, aggregation of purified polyQ. As to the method:
To determine whether C2 could directly interfere with polyQ aggregation, we reproduced this process in vitro and assayed the inhibitory effects of the compounds in a cell-free trap assay. Recombinant HD Q51 polypeptide, purified from bacteria, was incubated in the presence or in the absence of C2 for a time sufficient to allow aggregation. Then, upon heat-denaturation in SDS buffer, samples were filtered through a cellulose acetate membrane. Harsh denaturation conditions separated unaggregated soluble peptides, which passed through the membrane, and insoluble aggregates, which were retained on the membrane. The polyQ aggregates trapped on the membrane were subsequently immunostained and quantified.
Congo Red, which is structurally unrelated to C2-8, was used as a control.

The next data set concerns cells. As to the kind of experiment: nonspecific toxicity to cells. The data set is classed as cell-based.
A further data set concerns HDAc. As to the kind of experiment: HDAc activity. The data set is classed as biochemical. The note with it: at high concentrations; down-regulation of HDAc 5.
The subject of data set [6] is polyQ-containing polypeptides. Description: aggregation of polyQ-containing polypeptides, assay not specified.
In a further data set the test system is htt103Q-EGFP. As to the kind of experiment: PC12 htt103Q-EGFP fluorescence assay. Format: cell-based. The note with it: PC12 cells. The text has this:
A PC12 cell line was engineered to express extended polyQ under the control of an ecdysone-inducible promoter. In the assay cell line, an N-terminal fragment of htt containing an extended polyQ tract was stably expressed as a fusion with EGFP (htt103Q-EGFP), from the pIND vector. Expression of extended polyQ in these cells was controlled by addition of an ecdysone analog, in this case muristerone A. In this assay, EGFP fluorescence directly correlated with htt103Q-EGFP expression levels. This system was designed to assess the effects of specific compounds on overall levels of extended polyglutamines in cells, using a simple fluorescent-based read-out.

For a further data set, the system named is PC12 cells. Description: rescue from scriptaid-dependent synthetic lethality in PC12 cells. Format: cell-based, rat. From the text: (§1) The compound C9 (A33 in Table 1) has structural similarity to the histone deacetylase (HDAc) inhibitor, scriptaid (6-(1,3-Dioxo-1H,3H-benzo[de]isoquinolin-2-yl)-N-hydroxyhexanamide) (Su et al., Cancer Res. 60:3137, 2000; A5 in Table 1). We observed the most dramatic effect on expression level by C9 and scriptaid in the PC12 cell line 14A2/6 expressing the extended polyQ mutant htt(104Q). The effect of C9 on the down-regulation of polyQ expression, was similar to cystamine, a drug that has shown efficacy in a mouse model for Huntington's Disease (HD). […] 14A2/6 cells were at least 5-fold more responsive to chemical treatment than other cell lines tested.

The subject of data set [7] is mutant Huntingtin transgene (htt). As to the kind of experiment: transgene (mutant htt, extended polyQ) expression in inducible PC12 cells. The note with it: PC12 cells, with scriptaid. Format: cell-based, rat.
From the text: as §1
Transcriptional dysregulation is a hallmark of HD. […] Expression of the polypeptide was under control of an inducible ecdysone receptor (EcR)-based promoter.

The test system of another data set is R2/6 HD mice. Conditions: cited from earlier work.
The mark [8] stands for this setting: PC12 clones 14A2/5 and 14A2/6, muristerone A induced, 1 to 10 μM, read-out: IC50, aggregation of 103Q.
The mark [9] stands for this setting: PC12 cells, focus library analogs, 0.025 μM to 5.0 μM, read-out: IC50, polyQ aggregation.

Turning to `CCN1C(=O)c2cccc3c(NC(C)=O)ccc1c23` [CG4, N-(1-Ethyl-2-oxo-1,2-dihydro-benzo[cd]indol-6-yl)-acetamide], the transcription activation entry in data set [1] is “most potent transcriptional activator”. For `CN(C)CCN1C(=O)c2ccc(Cl)c3c(Cl)ccc(c23)C1=O` [Compound C1, 6,7-Dichloro-2-(2-dimethylamino-ethyl)-benzo[de]isoquinoline-1,3-dione], the IC50 in [2] (setting [8]) and in data set [3] was 10 µM throughout. In the case of `O=C(Nc1ccc(Br)cc1)c1cccc(S(=O)(=O)Nc2ccc(Br)cc2)c1` [Compound C2-8, N-(4-Bromo-phenyl)-3-(4-bromo-phenylsulfamoyl)-benzamide], in [4], the concentration inhibiting aggregates intensity and area was 10 µM. The IC50 came to 0.05 µM in data set [2] (setting [9]) and 25 µM in data set [5].

As for `CC/C(=C/c1sc2ccc3ccccc3c2[n+]1CCCS(=O)(=O)[O-])SC` [Compound C3, 3-[2-(2-Methylsulfanyl-but-1-enyl)-naphtho[1,2-d]thiazol-1-yl]-propane-1-sulfonic acid anion], the IC50 in data set [2] (setting [8]) and in data set [3] was 5 µM each time. Regarding `c1ccc(-c2nc3cnc4ccccc4c3s2)cc1` [Compound C3-6, 2-Phenyl-thiazolo[4,5-c]quinoline], the concentration for half-maximal inhibition (IC50) in data set [2] (setting [9]) is 5 µM. As to `O=C1c2cccc3c(N4CCOCC4)ccc(c23)C(=O)N1Cc1ccccc1` [Compound C4, 2-Benzyl-6-morpholin-4-yl-benzo[de]isoquinoline-1,3-dione], the 50% inhibitory concentration (IC50) in data set [2] (setting [8]) worked out at 2.5 µM; in data set [3] it was 5 µM. `O=C1c2cccc3c(N4CCCCC4)ccc(c23)C(=O)N1CO` [Compound C4-7, 2-Hydroxymethyl-6-piperidin-1-yl-benzo[de]isoquinoline-1,3-dione]: in [2] (setting [9]), the IC50 is 0.1 µM.

`CN(C)CCN1C(=O)c2cccc3cccc(c23)C1=O` [Compound C9-1B, 2-(2-Dimethylamino-ethyl)-benzo[de]isoquinoline-1,3-dione]: the “EC200, transcription activation” value in data set [1] worked out at 50 nM. Also, the “range of weak nonspecific toxicity” value in the data set on cells lay in the range of 1.25 to 5.0 µM.

For the compound `O=C1c2cccc3cccc(c23)C(=O)N1CCNCO` [Compound C9-3, 2-[2-(Hydroxymethyl-amino)-ethyl]-benzo[de]isoquinoline-1,3-dione], in data set [1], the transcription activation result is “did not effectively activate transcription”. On to `O=C1c2cccc3cccc(c23)C(=O)N1CCN1CCCCC1` [Compound C9-4, 2-(2-Piperidin-1-yl-ethyl)-benzo[de]isoquinoline-1,3-dione], for which the HDAc inhibitory activity entry in the data set with HDAc was “indirect HDAc inhibitory activity”. Take `CN(C)CCCN1C(=O)c2cccc3cccc(c23)C1=O` [Compound C91, 2-(3-Dimethylamino-propyl)-benzo[de]isoquinoline-1,3-dione]: the “EC200, transcription activation” value in data set [1] was found to be 4000 nM. The effect on aggregation result in data set [6] is “facilitate protein-protein aggregation”. As to `CCN(CC)C(=O)c1sc(NC(=O)c2ccc(F)cc2)c(C(=O)OC(C)C)c1C` [Compound D3, 5-Diethylcarbamoyl-2-(4-fluoro-benzoylamino)-4-methyl-thiophene-3-carboxylic acid isopropyl ester], the “effect on protein aggregation” value in the data set on htt103Q-EGFP is reported as “facilitators of protein aggregation”. `CCOC(=O)c1sc(NC(=O)c2cc(S(N)(=O)=O)c(Cl)cc2Cl)c(C(=O)OCC)c1C` [Compound D4, 5-(2,4-Dichloro-5-sulfamoyl-benzoylamino)-3-methyl-thiophene-2,4-dicarboxylic acid diethyl ester]: the “effect on protein aggregation” value with htt103Q-EGFP is listed as “inhibit protein aggregation”. As to `NCCSSCCN` [cystamine, reference compound], in the data set on PC12 cells, the “rescue from scriptaid-dependent synthetic lethality” value is on record as “rescued”. Moreover, in data set [7], the “effect on scriptaid-stimulated expression and aggregation” value was “reversed the stimulatory effect”. In addition, in the data set with R2/6 HD mice, the protein aggregation result is “blocked protein aggregation” and the survival entry is on record as “prolonged the survival”.

Broadly, the IC50 is the concentration at which inhibition is half-maximal.
